Test system: galactosemic cataract model
Assay: Galactosemic cataract model, eye drops (Example 4)
Assay type: in vivo, Crj:CD(SD) IGS rats
Design: key to Pathological findings of lens: Cataract / Pathological findings of lens: Vacuolation of lens epithelium / Pathological findings of lens: Alignment irregularity of lens cortical fiber / Pathological findings of lens: Vacuole structure in outer cortex: −: no change; ±: very slight change; +: slight change; 2+: medium change; 3+: significant change
Conditions: for severity of cataract (Cotlier standard score): four times per day, n=10, mean±standard deviation; for Pathological findings of lens: Alignment irregularity of lens cortical fiber / Pathological findings of lens: Cataract / Pathological findings of lens: Vacuolation of lens epithelium / Pathological findings of lens: Vacuole structure in outer cortex: eye balls resected 28 days later; for cases with severe sugar cataract: until day 28 of eye dropping
Procedure: 352 mg of a test substance was weighed and then dissolved in 1.1 mL of 1N NaOH (1 mol/L sodium hydroxide; manufactured by Wako Pure Chemical, Co., Ltd.). After dissolution, it was verified with a pH paper (Duotest under trade name; MACHEREY-NAGEL) that the pH was within an acceptable range (5 to 8). Subsequently, the resulting solution was divided in each volume of 0.03 mL into 30 2-ml tubes (28 such tubes for four tests per day for 7 days+2 such tubes for spare). These were immediately frozen in liquid nitrogen, and stored under freezing (preset at −85° C. within an acceptable range of −90 to −75° C.)/dark conditions. The solutions under storage were defined as stock solution at 320 mg/mL. The stock solutions could be used within 8 days after the preparation. The stock solutions outside the 8-day period after the preparation were disposed. Before eye dropping, the following preparation was done. After the tubes of the stock solution at 320 mg/mL were back to ambient temperature, 0.93 mL of physiological saline was directly added to the tubes for dilution. After preparative dilution, it was verified with a pH paper that the pH of the diluted solutions were within an acceptable range (5 to 8). The resulting eye drop was defined as 1.0% eye drop for use in administration. 0.09 mL of the 1.0% eye drop was divided in a 2-mL tube, to which 0.81 mL of physiological saline was directly added for dilution. Subsequently, it was verified with a pH paper that the pH of the diluted solution was within an acceptable range (5 to 8). The resulting eye drop was defined as 0.1% eye drop, for use in administration. Herein, eye drops of pH outside the acceptable range were never used. The 1.0% eye drop and the 0.1% eye drop practically used for administration were at pH 5.2 to 8.0 and pH 6.2 to 7.4, respectively. As the medium, physiological saline as the control substance was used as it was. Male Crj:CD(SD) IGS rats (SPF) of age 3 weeks were subjected to a 5-day quarantine period and then to an 8-day acclimatization period. By the random extraction method, the rats were grouped in 3 groups, where each group consisted of 10 rats, in a manner such that the average body weight and deviation in each group might be almost equal. After grouping, the rats were fed ad libitum with a powdery feed containing galactose at 50% [a powder feed (Lot No. 050107) of a mixture at equal amounts of CRF-1 powder feed (Lot No. 041104; manufacturer: Oriental Yeast Co., Ltd.) and galactose (D-galactose, Lot No. QYG0223, manufacturer: Yoneyama Pharmaceutical Industry, Co. Ltd.); the mixture was prepared by Oriental Yeast Co., Ltd.; abbreviated as {galactose feed}] hereinafter], as placed in a powder feeder. Additionally, the rats were fed ad libitum with drinking water. The three groups were defined as (A) medium control group, (B) 0.1% 5-S-GAD eye drop group, and (C) 1.0% 5-S-GAD eye drop group for dosing. The administration route was eye dropping as a clinically prospective route. The number of eye dropping per day was four times, while the interval between eye droppings was about 2 hours. The eye dropping was done around 9:30 am (9:00 am to 10:00 am as the defined time period), around 11:30 (11:00 am to 12:00 am as the defined time period), around 13:30 (13:00 pm to 14:00 pm as the defined time period) and around 15:30 pm (15:00 pm to 16:00 pm as the defined time period). Eye dropping was done over 28 days. On day 1, day 7, day 14, day 21 and day 28, ophthalmologic examinations were done about 30 minutes after each last eye dropping. The observation method is as follows. Right eye with eye drop application and left eye without any treatment were observed of their lenses, using a slit lamp (SL-15, Kowa Company, Ltd.). The severity of cataract was evaluated, according to the Cotlier standard (see FIG. 1 in Arch Ophthalmol., (67) 476-82, 1962, which was entitled ‘Development of galactose cataract in the rat, showing biomicroscopic front and slit view’). […]

With `NCCC(=O)N[C@@H](Cc1cc(O)c(O)c(SC[C@H](NC(=O)CC[C@H](N)C(=O)O)C(=O)NCC(=O)O)c1)C(=O)O` [5-S-GAD, N-β-alanyl-5-S-glutathionyl-3,4-dihydroxyphenylalanine] the “abnormality of general states” value (0.1% and 1.0% eye drop groups, before eye dropping and about one hour after the last eye dropping during the eye dropping period) was “no abnormality of their general states was observed”, the “severity of cataract (Cotlier standard score)” value (“severity of cataract” for short) (0.1% eye drop, on day 1) was 0 ± 0 and the “severity of cataract” value (0.1% eye drop, on day 7) was 1.9 ± 0.1. For the same compound, the “severity of cataract” value (0.1% eye drop, on day 14) was 2.5 ± 0.1, the “severity of cataract” value (0.1% eye drop, on day 21) was 3.6 ± 0.1 and the “severity of cataract” value (0.1% eye drop, on day 28) was 3.9 ± 0.1. For the same compound, the “Pathological findings of lens: Alignment irregularity of lens cortical fiber” value (0.1% eye drop) was “+”, the “Pathological findings of lens: Cataract” value (0.1% eye drop) was 2+ and the “Pathological findings of lens: Vacuolation of lens epithelium” value (0.1% eye drop) was “±”. For the same compound, the “Pathological findings of lens: Vacuole structure in outer cortex” value (0.1% eye drop) was “±”, the “cases with severe sugar cataract” value (0.1% eye drop) was “no case with severe sugar cataract occurred until day 28” and the “severity of cataract” value (1.0% eye drop, on day 1) was 0 ± 0. For the same compound, the “severity of cataract” value (1.0% eye drop, on day 7) was 1.8 ± 0.1, the “severity of cataract” value (1.0% eye drop, on day 14) was 2.4 ± 0.1 and the “severity of cataract” value (1.0% eye drop, on day 21) was 3.4 ± 0.1. For the same compound, the “severity of cataract” value (1.0% eye drop, on day 28) was 3.8 ± 0.1, the “Pathological findings of lens: Alignment irregularity of lens cortical fiber” value (1.0% eye drop) was “+” and the “Pathological findings of lens: Cataract” value (1.0% eye drop) was 2+. For the same compound, the “Pathological findings of lens: Vacuolation of lens epithelium” value (1.0% eye drop) was “−”, the “Pathological findings of lens: Vacuole structure in outer cortex” value (1.0% eye drop) was “±” and the “cases with severe sugar cataract” value (1.0% eye drop) was “No case with severe sugar cataract emerged until day 28”. The “pathological effect in the galactosemic rat cataract model (in words)” value (pathological findings, day 28) was “apparent ameliorating effect pathologically”.
